This note sets out measurements from patent US20140213576A1, “NOVEL COMPOUND USEFUL FOR THE TREATMENT OF DEGENERATIVE AND INFLAMMATORY DISEASES” (GALAPAGOS NV, priority 2013, published 2014).

SMILES strings stand for the structures.

The term IC50 denotes the concentration at which inhibition is half-maximal. As usually defined, the Ki is the equilibrium dissociation constant of an inhibitor or competing ligand from its target.

Experiment [1] concerns CTLL2 (ATCC TIB-214). Nature of the experiment: CTLL2 viability assay. It is filed as cell-based. The conditions noted are these: IL2-dependent viability, ATP-lite, individual determinations. Here is the method:
The protocol describes the methods to analyse the activity of compounds on the ability to sustain the IL2-dependent viability of CTLL2 (ATCC TIB-214).
Negative control is a DMSO dilution, positive control at 10 μM. Final DMSO concentration is 0.1%.

Experiment [2] relates to IL-6-induced STAT1 phosphorylation. Nature of the experiment: Whole blood assay, IL-6 stimulation, phospho-STAT1 by FACS. It is filed as cell-based. The conditions noted are these: human whole blood, CD4+ cells, 9 different donors. Here is the method: In addition, a flow cytometry analysis was performed to establish JAK1 over JAK2 compound selectivity ex vivo using human whole blood. Therefore, blood was taken from human volunteers who gave informed consent. Blood was then equilibrated for 30 min at 37° C. under gentle rocking, then aliquoted in Eppendorf tubes. Compound was added at different concentrations and incubated at 37° C. for 30 min under gentle rocking and subsequently stimulated for 20 min at 37° C. under gentle rocking with interleukin 6 (IL-6) for JAK1-dependent pathway stimulation or GM-CSF for JAK2-dependent pathway stimulation. Phospho-STAT1 and phospho-STAT5 were then evaluated using FACS analysis.
For IL-6-stimulated increase of Signal Transducers and Activators of Transcription 1 (pSTAT1) phosphorylation in white blood cell, human whole blood, drawn from human volunteers who gave informed consent, was ex vivo treated with the compound for 30 min and subsequently stimulated for 20 min with IL-6. The increase in phosphorylation of STAT1 by IL-6 in lymphocytes was measured using anti phospho-STAT1 antibody by FACS. […]
Cells are then washed once with 1×PBS and analyzed on a FACSCanto II flow cytometer (BD Biosciences).
50,000 total events were counted and Phospho-STAT1 positive cells were measured after gating on CD4+ cells, in the lymphocyte gate. […]
For orientation: A flow cytometer gives signals particle by particle.

The target in experiment [3] is T1, JAK1 (Homo sapiens, UniProt P23458).
T1 construct: Recombinant human JAK1 (catalytic domain, amino acids 866-1154; catalog number PV4774); purchased Invitrogen PV4774
The experiment in a line: JAK1 Ki determination assay. The experiment is classed as biochemical. The conditions noted are these: Lineweaver-Burk, varying ATP, Ulight-JAK-1 peptide; read-out: Ki against JAK1. Here is the method: For the determination of Ki, different amounts of compound were mixed with the enzyme and the enzymatic reaction was followed as a function of ATP concentration. The Ki was determined by means of double reciprocal plotting of Km vs compound concentration (Lineweaver-Burk plot). 1 ng of JAK1 (Invitrogen, PV4774) is used in the assay. The substrate was 50 nM Ulight-JAK-1 (Tyr1023) Peptide (Perkin Elmer, TRF0121) The reaction is performed in 25 mM MOPS pH 6.8, 0.01%, 2 mM DTT, 5 mM MgCl2 Brij-35 with varying concentrations of ATP and compound. Phosphorylated substrate was measured using an Eu-labeled anti-phosphotyrosine antibody PT66 (Perkin Elmer, AD0068) as described in 1.1.2. Readout was performed on the envision (Perkin Elmer) with excitation at 320 nm and emission followed at 615 nm and 665 nm.

T1 sequence (P23458 866-1154): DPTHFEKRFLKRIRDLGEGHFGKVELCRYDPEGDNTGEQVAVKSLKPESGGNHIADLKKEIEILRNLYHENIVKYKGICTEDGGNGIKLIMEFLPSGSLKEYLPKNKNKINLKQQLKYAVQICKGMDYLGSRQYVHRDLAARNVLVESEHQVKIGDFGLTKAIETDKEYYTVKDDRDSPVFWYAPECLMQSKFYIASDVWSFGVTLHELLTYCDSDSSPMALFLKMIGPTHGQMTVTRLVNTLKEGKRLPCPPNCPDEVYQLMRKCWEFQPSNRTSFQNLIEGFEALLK

As for `CCc1cc(C2CN(S(C)(=O)=O)C2)ncc1N(C)c1cc2c(cn1)ncn2C` [Compound 1, [4-Ethyl-6-(1-methanesulfonyl-azetidin-3-yl)-pyridin-3-yl]-methyl-(1-methyl-1H-imidazo[4,5-d]pyridin-6-yl)-amine], the IC50 stood at 3.79 µM in experiment [1] (24 h, listed as compound of the invention); 7.39 µM in experiment [1] (Mus musculus, CTLL-2, 24 h); 498 nM in experiment [2]. Moreover, the Ki in experiment [3] worked out at 9.21 nM.
